Measured values from patent publication US10829520B2, “Beta-hairpin peptidomimetics” (POLYPHOR AG, priority 2015, dated 2020).
Where a SMILES comes first, the peptide text is derived from it. Bridges are numbered along the chain shown (N, C = ends). Roman numbers before positions name the chains, in order. [ ]: non-standard residue; d: D form. Tle = CC(C)(C)[C@H](N)C(=O)O; dDab = NCC[C@@H](N)C(=O)O; hSer = N[C@@H](CCO)C(=O)O; Nle = CCCC[C@H](N)C(=O)O; Dab = NCC[C@H](N)C(=O)O; Dap = NC[C@H](N)C(=O)O

How the values were obtained:
Type in all cases: cell-based
[1] = test system: Acinetobacter baumannii 872842; details: 872842
[2] = test system: Acinetobacter baumannii DSM 30008; details: DSM 30008
Procedure, shortened: (§1)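 Peptide stocks (1 mg/mL, water) were diluted two-fold into MH-II broth with 0.002% P-80 and mixed with approx. 10^6 CFU/mL bacteria. Plates were read visually after 18-20 hours at 35° C, with MIC expressed in μg/mL per CLSI.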

Escherichia coli 926415 = details: 926415
[3] = test system: Escherichia coli ATCC 25922; details: ATCC 25922
Procedure, shortened: as §1

[4] = test system: Klebsiella pneumoniae 968733; details: 968733
[5] = test system: Klebsiella pneumoniae SSI #3010; details: SSI #3010
Procedure, shortened: as §1

[6] = test system: Pseudomonas aeruginosa ATCC 27853; details: ATCC 27853
Procedure, shortened: as §1

[7] = test system: human red blood cells (hRBC); experiment: Hemolysis of human red blood cells; details: red cells of human, 1 h
Procedure, shortened: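 hRBC washed 3× PBS; 20% v/v, ~0.9×10^9 cells/mL final. Peptide 100 μg/mL, 1 h, 37° C., 300 rpm. Spin, supernatant diluted 8×, OD540. 0% = PBS + 0.001% acetic acid; 100% = 2.5% Triton X-100. % hemolysis = OD540 peptide/OD540 full lysis × 100.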

Row | Compound | Acinetobacter baumannii 872842 MIC [1] [µg/mL] | Acinetobacter baumannii DSM 30008 MIC [2] [µg/mL] | Escherichia coli 926415 MIC (Escherichia coli 926415) [µg/mL] | Escherichia coli ATCC 25922 MIC [3] [µg/mL] | Klebsiella pneumoniae 968733 MIC [4] [µg/mL] | Klebsiella pneumoniae SSI #3010 MIC [5] [µg/mL] | Pseudomonas aeruginosa ATCC 27853 MIC [6] [µg/mL] | Hemolysis at 100 μg/mL [7]; 100 [%] | Hemolysis at 100 μg/mL ([7]; 100 μg/mL) [%]
1 | CC(C)C[C@@H]1NC(=O)[C@@H](CC(C)C)NC(=O)[C@H](CCN)NC(=O)[C@@H](NC(=O)[C@H](CCN)NC(=O)[C@@H](NC(=O)[C@H](CCN)NC(=O)CC[C@@H]2NC(=O)[C@H](CCO)NC(=O)[C@H](Cc3ccc(O)cc3)NC(=O)[C@H]([C@@H](C)O)NC(=O)[C@H](C(C)C)NC(=O)[C@@H]3CCCN3C(=O)[C@@H](C)NC(=O)[C@H](CO)NC(=O)[C@H](C)NC(=O)[C@H](C(C)(C)C)NC(=O)[C@H](CCO)NC(=O)[C@H](Cc3c[nH]c4ccccc34)NC(=O)[C@H](CCO)NC(=O)[C@@H](CCN)NC2=O)[C@@H](C)O)CCNC(=O)[C@H]([C@@H](C)O)NC(=O)[C@H](CCN)NC(=O)[C@H](CCN)NC1=O [Ex. 102] (I: cyclo(AS[dA]PVTY[hSer]E[dDab][hSer]W[hSer][Tle]) / II: [Dab]T[Dab][Dab][Dab][dL]L[Dab][Dab]T; amide I:9-II:N; lactam II:4-II:C) | 0.5 | 0.0625 | 0.25 | 0.0625 | 0.5 | 0.125 | 0.125 | <1 | 
2 | CCCC[C@@H]1NC(=O)[C@@H]2CCCN2C(=O)[C@H]2CCCN2C(=O)[C@H](CO)NC(=O)[C@H](C)NC(=O)[C@H](C(C)(C)C)NC(=O)[C@@H](NC(=O)[C@H](Cc2c[nH]c3ccccc23)NC(C)=O)CSSC[C@@H](C(=O)N[C@@H](CCN)C(=O)N[C@@H](CN)C(=O)N[C@H]2CCNC(=O)[C@H]([C@@H](C)O)NC(=O)[C@H](CCN)NC(=O)[C@H](CCN)NC(=O)[C@H](CC(C)C)NC(=O)[C@@H](Cc3ccccc3)NC(=O)[C@H](CCN)NC2=O)NC(=O)[C@H](Cc2ccc(O)cc2)NC(=O)[C@H](CO)NC1=O [Ex. 50] (Ac-WC[Tle]AS[dP]P[Nle]SYC[Dab][Dap][Dab][Dab][dF]L[Dab][Dab]T; disulfide 2-11; lactam 14-C) | 0.5 | 0.25 | 0.5 | 0.25 | 2 | 0.25 | 1 |  | 1
3 | CCCC[C@@H]1NC(=O)[C@@H]2CCCN2C(=O)[C@@H](C)NC(=O)[C@H](CO)NC(=O)[C@H](C)NC(=O)[C@H](C(C)(C)C)NC(=O)[C@@H](NC(=O)[C@H](Cc2c[nH]c3ccccc23)NC(C)=O)CSSC[C@@H](C(=O)N[C@@H](CCN)C(=O)N[C@H](C(=O)N[C@@H](CCN)C(=O)N[C@H]2CCNC(=O)[C@H]([C@@H](C)O)NC(=O)[C@H](CCN)NC(=O)[C@H](CCN)NC(=O)[C@H](CC(C)C)NC(=O)[C@@H](Cc3ccccc3)NC(=O)[C@H](CCN)NC2=O)[C@@H](C)O)NC(=O)[C@H](Cc2ccc(O)cc2)NC(=O)[C@H](CO)NC1=O [Ex. 17] (Ac-WC[Tle]AS[dA]P[Nle]SYC[Dab]T[Dab][Dab][Dab][dF]L[Dab][Dab]T; disulfide 2-11; lactam 15-C) | 0.25 | 0.5 | 1.5 | 0.25 | 0.5 | 0.5 | 0.5 |  | 3
